ChEMBL document CHEMBL1255445, “Evaluation of nucleoside hydrolase inhibitors for treatment of African trypanosomiasis” (Antimicrob Agents Chemother, 2010)
Activity calls are given as the source filed them.

Experiments:
[1] = Cytotoxicity against human MRC5 SV2 cells after 48 hrs; format: cell-based; details: MRC5, 48 h
Plasmodium falciparum = assay: Antiparasitic activity against chloroquine-sensitive Plasmodium falciparum Ghana assessed as reduction in parasite growth after 3 days by fluorimetry; format: functional, organism-based
[2] = Inhibition of Trypanosoma vivax Inosine-adenosine-guanosine-nucleoside hydrolase
[3] = Inhibition of Trypanosoma brucei brucei Inosine guanosine nucleoside hydrolase
Trypanosoma cruzi = assay: Antitrypanosomal activity against Trypanosoma cruzi Tulahuen CL2 s-galactosidase strain assessed as reduction in parasite growth after 3 days by fluorometrically; format: functional, organism-based
[4] = test system: Trypanosoma brucei brucei; assay: Antitrypanosomal activity against suramin sensitive Trypanosoma brucei brucei Lister 427 assessed as reduction in parasite growth after 3 days by fluorometrically; format: functional, organism-based; details: Lister 427, 72 h
[5] = Inhibition of Trypanosoma brucei brucei Lister 427 Nucleoside transporter P1 by scintillation counting
[6] = Inhibition of human purine nucleoside phosphorylase
[7] = Inhibition of Trypanosoma brucei brucei inosine-adenosine-guanosine nucleoside hydrolase (IAG-NH)
Leishmania infantum = assay: Antileishmanial activity against Leishmania infantum MHOM/MA/67/ITMAP263 intracellular amastigotes assessed as reduction in parasite growth after 3 days by fluorometrically; format: functional, organism-based
[8] = test system: Trypanosoma brucei brucei; assay: Antitrypanosomal activity against suramin sensitive Trypanosoma brucei brucei Lister 427 assessed as parasite killing at 1 uM after 24 hrs; format: functional, organism-based
[9] = test system: Trypanosoma brucei brucei; assay: Antitrypanosomal activity against suramin sensitive Trypanosoma brucei brucei Lister 427 assessed as reduction in parasite growth at > 5 uM by Alamar blue assay; format: functional, organism-based
[10] = test system: Trypanosoma brucei brucei; assay: Antitrypanosomal activity against suramin sensitive Trypanosoma brucei brucei Lister 427 infected in Swiss Webster mouse assessed as parasite clearance in blood at 50 mg/kg treated orally for 1 day followed by intraperitoneally for 4 days measured on 10 days post-infection; format: functional, organism-based; set-up: dose 50 mg/kg
[11] = Inhibition of Trypanosoma brucei brucei Lister 427 Nucleoside/nucleobase transporter P2 transporter by scintillation counting
[12] = test system: Trypanosoma brucei brucei; assay: Antitrypanosomal activity against suramin sensitive Trypanosoma brucei brucei Lister 427 assessed as reduction in viability and mortality up to 20 uM over 7 hrs by in vitro lysis assay; format: functional, organism-based
[13] = Inhibition of Trypanosoma brucei brucei Lister 427 H2 transporter by scintillation counting
[14] = test system: Trypanosoma brucei brucei; assay: Antitrypanosomal activity against suramin sensitive Trypanosoma brucei brucei Lister 427 infected in Swiss Webster mouse assessed as mouse survival at 50 mg/kg treated 1 day po and for 4 days in ip measured on 21 days after infectio; format: functional
[15] = test system: Trypanosoma brucei brucei; assay: Antitrypanosomal activity against suramin sensitive Trypanosoma brucei brucei Lister 427 assessed as parasite killing at 0.25 uM within 5 hrs; format: functional, organism-based
[16] = test system: Trypanosoma brucei brucei; assay: Antitrypanosomal activity against suramin sensitive Trypanosoma brucei brucei Lister 427 assessed as parasite killing at 10 uM after 48 hrs; format: functional
[17] = test system: Trypanosoma brucei brucei; assay: Antitrypanosomal activity against suramin sensitive Trypanosoma brucei brucei Lister 427 infected in Swiss Webster mouse assessed as parasite clearance in blood at 50 mg/kg treated orally for 1 day followed by intraperitoneally for 4 days measured on 21 days post-infection; format: functional, organism-based; set-up: dose 50 mg/kg
[18] = test system: Trypanosoma brucei rhodesiense; assay: Antitrypanosomal activity against Trypanosoma brucei rhodesiense assessed as reduction in parasite growth after 3 days by fluorometrically; format: functional, organism-based; details: 72 h
[19] = test system: Trypanosoma brucei brucei; assay: Antitrypanosomal activity against suramin sensitive Trypanosoma brucei brucei Lister 427 infected in Swiss Webster mouse assessed as parasite clearance in blood at 50 mg/kg treated orally for 1 day followed by intraperitoneally for 4 days measured on 14 days post-infection; format: functional, organism-based; set-up: dose 50 mg/kg

SMILES | Ki [2] [µM] | Ki [3] [µM] | IC50 [4] [µM] | Ki [5] [µM] | Ki [6] [µM] | Ki [7] [µM] | IC50 [1] [µM] | Activity (Plasmodium falciparum) | Activity (Trypanosoma cruzi) | Activity (Leishmania infantum) | Ki [11] [µM] | also measured
Nc1ncnc2c(CN3C[C@H](O)[C@H](O)[C@H]3CO)c[nH]c12 | 0.0041 | 32 | 0.49 | 360 | 22.5 | 0.018 | > 64 | inactive | inactive | inactive | 8.2 | Activity [8]: Active; Activity [9]: Active; Activity [10]: Active; Activity [12]: inactive; Ki [13]: 590 µM; Activity [14]: 75%; Activity [15]: Active; Activity [16]: 75%; Activity [17]: Active; IC50 [18]: 0.26 µM; Activity [19]: Active
O=c1[nH]cnc2c(CN3C[C@H](O)[C@H](O)[C@H]3CO)csc12 | 0.02 | 120 | > 34 | 300 | 77.6 | 0.19 | > 64 | inactive | inactive | inactive | – | –
Nc1ncnc2c(CN3C[C@H](O)[C@H](O)[C@H]3CO)csc12 | 0.019 | 31 | > 64 | 540 | 1000 | 0.056 | > 64 | inactive | inactive | inactive | 125 | –

Further compounds by falling Ki [2], results first:

Ki [2] [µM] | Ki [3] [µM] | IC50 [4] [µM] | Ki [5] [µM] | Ki [6] [µM] | Ki [7] [µM] | SMILES | IC50 [1] [µM] | Activity (Plasmodium falciparum) | Activity (Trypanosoma cruzi) | Activity (Leishmania infantum) | Ki [11] [µM] | also measured
0.04 | 14 | > 64 | 810 | > 1000 | 0.56 | Nc1nc2c(CN3C[C@H](O)[C@H](O)[C@H]3CO)cccc2s1 | > 64 | inactive | inactive | inactive | – | –
0.0044 | 138 | > 64 | > 1000 | 0.0058 | 0.03 | OC[C@@H]1[C@@H](O)[C@@H](O)CN1Cc1c[nH]c2c(O)ncnc12 | > 64 | inactive | inactive | inactive | – | –
